Measurements from patent US8389513B2, “2-amino-5,5-difluoro-5,6-dihydro-4H-[1,3]oxazin-4-yl)-phenyl]-amides” (Hoffmann-La Roche Inc., priority 2009, dated 2013).

Columns and labels:
[1] = target: T1, CYP3A4 (Homo sapiens, UniProt P08684); assay: CYP inhibition assay, CYP3A4; format: in vitro ADME; conditions: human liver microsomes, midazolam; read-out: CYP IC50 3A4
T1 construct: 0.2 mg/ml pooled human liver microsomes; from tissue; host or cells: pooled human liver microsomes
Description: (§1) Inhibition of cytochromes P450 (CYPs) 2C9, 2D6 and 3A4 was assessed using human liver microsomes and CYP-selective substrate metabolism reactions. 50 μl incubations were made up containing (finally) 0.2 mg/ml pooled human liver microsomes, 5 μM substrate (diclofenac for CYP2C9 [4′ hydroxylase], dextromethorphan for CYP2D6 [O-demethylase] or midazolam for CYP3A4 [1′ hydroxylase]), 0.25 μL DMSO containing test inhibitor and NADPH regenerating system. […] Incubations were prewarmed to 37° C. for 10 minutes before initiation by addition of NADPH regenerating system. Incubations were quenched after 5 minutes (20 minutes for dextromethorphan) by addition of 50 μl cold acetonitrile containing 20 ng/ml 4-OH-diclofenac-13C6, 20 ng/mL dextrorphan-D3 and 20 ng/mL 1-OH-midazolam-D4. Quenched incubates were stored at −20° C. for at least 1 hour before centrifugation (20,000×g, 20 minutes). Supernatants were removed and diluted 1:1 with water prior to analysis using a RapidFire sample injector system and API4000 mass spectrometer. Peak areas for substrate, metabolite and stable-labelled metabolite standard were determined using MS/MS. The peak area ratios between the metabolite generated by the enzymatic reaction and the internal standard were used in subsequent calculations. The percentage of (DMSO) control activity was calculated for each incubate and IC50 values estimated by non-linear regression. Sulfaphenazole, quinidine or ketoconazole were tested in each CYP2C9, CYP2D6 or CYP3A4 inhibition experiment, respectively, to ensure assay sensitivity and reproducibility.

[2] = target: T2, recombinant human cathepsin E (Homo sapiens, UniProt P14091); assay: Cathepsin E fluorescent substrate kinetic assay; format: biochemical; conditions: pH 4.5
T2 construct: purchased R&D Systems
T2 sequence (P14091 54-396): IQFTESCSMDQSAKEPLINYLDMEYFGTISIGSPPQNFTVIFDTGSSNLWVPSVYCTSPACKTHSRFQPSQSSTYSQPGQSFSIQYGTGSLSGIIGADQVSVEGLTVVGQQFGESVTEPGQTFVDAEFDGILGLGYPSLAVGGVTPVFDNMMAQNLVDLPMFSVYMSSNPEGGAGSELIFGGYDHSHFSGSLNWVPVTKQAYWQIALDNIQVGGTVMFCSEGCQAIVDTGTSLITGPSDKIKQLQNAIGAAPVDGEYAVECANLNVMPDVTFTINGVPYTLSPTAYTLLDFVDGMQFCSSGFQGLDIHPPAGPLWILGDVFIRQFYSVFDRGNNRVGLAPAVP
From the text: Cathepsin D and Cathepsin E Fluorescent Substrate Kinetic Assays
The MR121 fluorescence assays described below are based on the fact that MR121 forms a non-fluorescent ground state complex with tryptophan. In solution this formation occurs at millimolar concentrations of tryptophan. The mechanism can be used to design a generic biochemical assay for proteases. […] In absence of protease activity, the substrates remain intact and the MR121 fluorescence is reduced by the high local Trp-concentration. If the substrates are cleaved by the enzymes the MR121 fluorescence is recovered.
The fluorescent substrate cathepsin D and cathepsin E kinetic assays were performed at room temperature in 384-well microtiter plates (black with clear flat bottom, non binding surface plates from Corning) in a final volume of 51 μl. The test compounds were serially diluted in DMSO (15 concentrations, 1/3 dilution steps) and 1 μl of diluted compounds were mixed for 10 min with 40 μl of cathepsin D (from human liver, Calbiochem) diluted in assay buffer (100 mM sodium acetate, 0.05% BSA, pH 5.5; final concentration: 200 nM) or with 40 μl of recombinant human cathepsin E (R&D Systems) diluted in assay buffer (100 mM sodium acetate, 0.05% BSA, pH 4.5; final concentration: 0.01 nM). […] The enzymatic reaction was followed in a plate: vision reader (Perkin Elmer) (excitation wavelength: 630 nm; emission: 695 nm) for at least 30 minutes in a kinetic measurement detecting an increase of MR121 fluorescence during the reaction time. The slope in the linear range of the kinetic was calculated and the IC50 of the test compounds were determined using a four parameter equation for curve fitting.

[3] = target: T3, CYP2D6 (Homo sapiens, UniProt P10635); assay: CYP inhibition assay, CYP2D6; format: in vitro ADME; conditions: human liver microsomes, dextromethorphan; read-out: CYP IC50 2D6
T3 construct: 0.2 mg/ml pooled human liver microsomes; from tissue; host or cells: pooled human liver microsomes
T3 sequence (P10635 whole entry): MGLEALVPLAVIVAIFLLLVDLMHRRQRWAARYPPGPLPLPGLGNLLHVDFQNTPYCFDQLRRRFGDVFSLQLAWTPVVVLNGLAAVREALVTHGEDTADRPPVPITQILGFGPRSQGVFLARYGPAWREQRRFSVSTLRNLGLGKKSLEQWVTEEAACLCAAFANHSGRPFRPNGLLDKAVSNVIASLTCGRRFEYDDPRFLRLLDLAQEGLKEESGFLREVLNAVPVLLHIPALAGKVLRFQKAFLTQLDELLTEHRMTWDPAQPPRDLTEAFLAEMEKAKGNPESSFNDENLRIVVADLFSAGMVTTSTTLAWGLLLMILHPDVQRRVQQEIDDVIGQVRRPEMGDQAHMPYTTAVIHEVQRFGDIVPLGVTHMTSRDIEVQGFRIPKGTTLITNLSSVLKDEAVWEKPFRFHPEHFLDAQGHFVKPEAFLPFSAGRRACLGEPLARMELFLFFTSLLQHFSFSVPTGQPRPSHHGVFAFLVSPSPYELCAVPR
Description: as §1

T1 sequence (P08684 whole entry): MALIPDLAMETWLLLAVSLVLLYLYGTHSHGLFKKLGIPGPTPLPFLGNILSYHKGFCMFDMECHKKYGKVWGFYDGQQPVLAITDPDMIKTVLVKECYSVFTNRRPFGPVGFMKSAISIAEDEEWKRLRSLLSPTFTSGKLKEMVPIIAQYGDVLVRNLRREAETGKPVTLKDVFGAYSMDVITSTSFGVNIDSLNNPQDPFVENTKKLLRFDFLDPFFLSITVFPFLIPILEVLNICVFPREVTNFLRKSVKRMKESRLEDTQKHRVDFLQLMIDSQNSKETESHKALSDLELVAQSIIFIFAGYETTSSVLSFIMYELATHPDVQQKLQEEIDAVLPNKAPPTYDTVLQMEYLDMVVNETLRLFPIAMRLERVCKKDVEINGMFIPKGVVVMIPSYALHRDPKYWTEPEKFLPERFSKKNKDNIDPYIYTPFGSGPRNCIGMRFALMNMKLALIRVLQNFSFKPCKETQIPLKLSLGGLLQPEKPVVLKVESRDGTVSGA

IC50 [1]	IC50 [2]	IC50 [3]	SMILES
> 10 µM	109 µM	1 to 10 µM	C[C@]1(c2cc(NC(=O)c3ccc(Cl)cn3)ccc2F)N=C(N)OCC1(F)F [Example 1, 5-Chloro-pyridine-2-carboxylic acid [3-((R)-2-amino-5,5-difluoro-4-methyl-5,6-dihydro-4H-[1,3]oxazin-4-yl)-4-fluoro-phenyl]-amide]
1 to 10 µM	> 200 µM	> 10 µM	C[C@]1(c2cc(NC(=O)c3ncc(C#N)cc3Cl)ccc2F)N=C(N)OCC1(F)F [Example 39, 3-Chloro-5-cyano-pyridine-2-carboxylic acid [3-((R)-2-amino-5,5-difluoro-4-methyl-5,6-dihydro-4H-[1,3]oxazin-4-yl)-4-fluoro-phenyl]-amide]
1 to 10 µM	> 200 µM	1 to 10 µM	CC1(C)OC(N)=N[C@](C)(c2cc(NC(=O)c3ncc(C#N)cc3Cl)ccc2F)C1(F)F [Example 22, 3-Chloro-5-cyano-pyridine-2-carboxylic acid [3-((R)-2-amino-5,5-difluoro-4,6,6-trimethyl-5,6-dihydro-4H-[1,3]oxazin-4-yl)-4-fluoro-phenyl]-amide]
> 10 µM	> 200 µM	> 10 µM	CC1(C)OC(N)=N[C@](C)(c2cc(NC(=O)c3ccc(C#N)cn3)ccc2F)C1(F)F [Example 21, 5-Cyano-pyridine-2-carboxylic acid [3-((R)-2-amino-5,5-difluoro-4,6,6-trimethyl-5,6-dihydro-4H-[1,3]oxazin-4-yl)-4-fluoro-phenyl]-amide]
> 10 µM	> 200 µM	1 to 10 µM	C[C@]1(c2cc(NC(=O)c3ncc(C(F)(F)F)cc3Cl)ccc2F)N=C(N)OCC1(F)F [Example 5, 3-Chloro-5-trifluoromethyl-pyridine-2-carboxylic acid [3-((R)-2-amino-5,5-difluoro-4-methyl-5,6-dihydro-4H-[1,3]oxazin-4-yl)-4-fluoro-phenyl]-amide]
> 10 µM	> 200 µM	1 to 10 µM	CC1(C)OC(N)=N[C@](C)(c2cc(NC(=O)c3ncc(C(F)(F)F)cc3Cl)ccc2F)C1(F)F [Example 20, 3-Chloro-5-trifluoromethyl-pyridine-2-carboxylic acid [3-((R)-2-amino-5,5-difluoro-4,6,6-trimethyl-5,6-dihydro-4H-[1,3]oxazin-4-yl)-4-fluoro-phenyl]-amide]
> 10 µM		> 10 µM	C[C@]1(c2cc(NC(=O)c3ncc(Cl)cc3Cl)ccc2F)N=C(N)OCC1(F)F [Example 8, 3,5-Dichloro-pyridine-2-carboxylic acid [3-((R)-2-amino-5,5-difluoro-4-methyl-5,6-dihydro-4H-[1,3]oxazin-4-yl)-4-fluoro-phenyl]-amide]
